According to US20220304929A1, “LIPIDS FOR DELIVERY OF CHARGED MATERIAL, FORMULATIONS THEREOF AND METHOD FOR MAKING SAME” (INTEGRATED NANOTHERAPEUTICS INC., priority 2019, published 2022):

What was measured:
[1] = RNA or antisense oligonucleotide encapsulation efficiency (Quant-iT Ribogreen RNA / Oligreen ssDNA assays); assay type: physicochemical
Protocol: The RNA or antisense oligonucleotide encapsulation efficiency was determined using the Quant-iT Ribogreen RNA or Oligreen ssDNA Assays, respectively (Life Technologies, Burlington, ON). Briefly, LNP was incubated at 37° C. for 10 min in the presence or absence of 1% Triton X-100 (Sigma-Aldrich, St. Louis, Mo.) followed by the addition of the Ribogreen or Oligreen reagent. The fluorescence intensity (Ex/Em: 480/520 nm) was determined and samples treated with Triton X-100 represent total nucleic acid while untreated samples represent unencapsulated nucleic acid.
To prepare the LNPs, ionizable lipid, DSPC, cholesterol and PEG-DMPE were dissolved in ethanol. The siRNA was dissolved in pH 4.0-6.2 buffer composed of 10-50 mM acetate, succinate or citrate. In select cases, 10-50 mM 4-(2-Hydroxyethyl)piperazine-1-ethanesulfonic acid (HEPES) or 2-(N-Morpholino)ethanesulfonic acid (MES) buffer was used. LNP were prepared by rapidly mixing the lipid components in ethanol (in molar ratio of 50/10/38.5/1.5 of […]) with nucleic acids in aqueous buffer at a volumetric flow rate ratio of 1:3 (ethanol to aqueous, combined flow rate >12 mL/min) at room temperature. Typically, siRNA/lipids ratios were targeted for 0.056 wt/μmol. The product was then dialyzed against 1× phosphate-buffered saline (PBS) at pH 7.4 for 24 hours to remove residual ethanol and to raise the pH. PBS was refreshed after 4 hours.

[2] = LNP particle size and polydispersity by dynamic light scattering; assay type: physicochemical
factor VII (FVII) = assay: LNP-siRNA activity in the mouse Factor VII model; assay type: in vivo; conditions: C57Bl/6 mice, i.v. tail vein, 0.03-0.3 mg/kg siRNA, 24 hours post-injection
Protocol: Lipid nanoparticle (LNP) formulations containing cationic lipids of the disclosure and FVII siRNA were injected via a tail vein in C57Bl/6 wild-type mice and the levels of FVII in plasma was measured post injection. The mice were injected with LNP-siRNA at doses of 0.03 (left bar), 0.1 (middle bar) and 0.3 mg/kg (right bar). The cationic lipids incorporated in the LNPs were INT-A001, INT-A002, INT-A003 and INT-A007.
LNPs prepared as described in Example 2 containing siRNA against factor VII (FVII) were diluted with PBS such that injection volumes were maintained at 10 mL/kg body weight and administered (based on siRNA concentration) intravenously via tail vein in 6 to 8 weeks old female C57Bl/6 mice (Charles River Laboratories, Wilmington, Mass.). At 24 hours post-injection, animals were euthanized and blood was collected via intracardiac sampling. Blood samples were allowed to coagulate at 4° C. overnight and the serum was separated followed by centrifugation for 15 min at 12,000 rpm. The serum FVII levels were determined using the Biophen VII chromogenic assay (Aniara, Mason, Ohio) according to the protocol of the manufacturer.

[3] = HA incorporation into LNP (HA:Lipid ratio); assay type: physicochemical; conditions: LNP containing ionizable lipid and HA (8-15 kDa)
Protocol: (§1) Lipid concentrations were determined by measuring total cholesterol using the Cholesterol E enzymatic assay kit from Wako Chemicals USA (Richmond, Va.).
Hyaluronic acid was used as an example of anionic cargos. LNPs were prepared as described in Example 2 containing HA with a molecular weight of 8-15 kDa.

[4] = tested on: luciferase expressing human prostate cells (22Rv1); assay: LNP-siRNA luciferase gene silencing in cultured 22Rv1 cells; assay type: cell-based; conditions: 1 ug/mL siRNA, 16-24 hr
Protocol: Cells were treated with lipid nanoparticle (LNP) formulations containing ionizable lipids of the disclosure and Luciferase siRNA at concentrations of 1.0 (left bar), 0.3 (middle bar) and 0.1 μg/mL (right bar). The level of luminescence was measured post treatment. The ionizable lipids incorporated in the LNPs were 2-(dimethylamino)ethyl (±)-syn-9,10-dilinoleoxystearate (INT-A001), 3-(diethylamino)propyl (±)-syn-9,10-dilinoleoxystearate (INT-A002), 3-(dimethylamino)propyl (±)-syn-9,10-dilinoleoxystearate (INT-A003), 2-(diethylamino)ethyl (±)-syn-9,10-dilinoleoxystearate (INT-A004), 3-(dimethylamino)propyl (12R)-linoleoxyoleate (INT-A005), 3-(diethylamino)propyl (syn-9,10,12R)-trilinoleoxystearate (INT-A006), and 3-(diethylamino)propyl (±)-syn-9,10-bis(2-hexyldecanoyloxy)stearate (INT-A007).
The level of luminescence was measured 16-24 hr post treatment and the relative luminescence is ranked from highest (left) to lowest (right).
The activity of the ionizable lipids in vitro was evaluated in luciferase expressing human prostate cells (22Rv1). LNPs containing siRNA against firefly luciferase were prepared as described in Example 2. […] Equal amounts of Steady-Glo reagent (Promega) was added to each sample and the level of luminescence was determined using a Synergy LX plate reader (BioTek). […]

[5] = Peptide incorporation into LNP (Peptide:Lipid ratio; BCA or CBQCA protein quantification); assay type: physicochemical
Protocol: as §1
Quantification of protein/peptide was performed with the use of either the BCA Protein Assay (Pierce) or the CBQCA Protein Quantitation Kit (Invitrogen) according to the manufacturer's instructions.

[6] = LNP containing ionizable lipid and antisense oligonucleotide
[7] = LNP containing ionizable lipid and siRNA
[8] = LNP containing ionizable lipid and HA (8-15 kDa)
[9] = LNP containing ionizable lipid and a 2.0 kDa acidic peptide (net charge -3)
[10] = LNP containing ionizable lipid and a 4.2 kDa acidic peptide (net charge -3)

Encapsulation Efficiency [1, 6]: 84%
Encapsulation Efficiency [1, 7]: 84%
Particle Diameter [2, 8]: 58 nm
Polydispersity index (PDI) [2, 8]: 0.065
Particle Diameter [2, 9]: 79 nm
Polydispersity index (PDI) [2, 9]: 0.019
Particle Diameter [2, 10]: 52 nm
Polydispersity index (PDI) [2, 10]: 0.049
Particle Diameter [2, 6]: 55 nm
Polydispersity index (PDI) [2, 6]: 0.070
Particle Diameter [2, 7]: 59 nm
Polydispersity index (PDI) [2, 7]: 0.021
HA:Lipid [3]: 0.096 wt/wt
Peptide:Lipid [5, 9]: 0.075 wt/wt
Peptide:Lipid [5, 10]: 0.162 wt/wt
SMILES: CCCCCCCCC(CCCCCC)C(=O)O[C@@H](CCCCCCCC)[C@@H](CCCCCCCC(=O)OCCCN(CC)CC)OC(=O)C(CCCCCC)CCCCCCCC (mixture of isomers) [INT-A007, 3-(Diethylamino)propyl (±)-syn-9,10-bis(2-hexyldecanoyloxy)stearate]
Activity in mediating FVII gene-silencing (residual serum FVII levels) (factor VII (FVII)): active in mediating gene-silencing
Relative activity in silencing of the firefly luciferase gene (luminescence) [4]: most active
